Patent US20220142948A1, “COMPOSITIONS AND METHODS FOR MODULATING METABOLIC REGULATORS OF T CELL PATHOGENICITY” (The Broad Institute, Inc., priority 2019, published 2022)
“Also recorded” adds a separate entry of the source.

Legend:
[1] = tested on: Th17 cells (Th17n, Th17p); assay: Legendplex analysis of cytokines in culture supernatant; format: cell-based, mouse
Procedure: Legendplex. Cytokine concentrations in supernatants of in vitro cultures were analyzed by the LegendPlex Mouse Th Cytokine Panel (13-plex) (BioLegend) according to the manufacturer's instructions and analyzed on a FACS LSR II (BD Biosciences).
Seahorse assay was performed and seahorse media was prepared following manufacturer instructions (Agilent). Cells were re-stimulated with PMA/ionomycin for four hours in the presence of brefaldin and monensin before analysis for cytokines by intracellular cytokine staining. Cytokine concentrations in supernatants of in vitro cultures were analyzed by the LegendPlex Mouse Th Cytokine Panel (13-plex) (BioLegend) according to the manufacturer's instructions and analyzed on a FACS LSR II (BD Biosciences).

[2] = tested on: Th17n, Th17p and iTreg cells; assay: Population ATAC-seq chromatin accessibility; format: cell-based, mouse
Description: ATAC-seq. For population ATAC-seq, in vitro differentiated T-cells were sorted for live cells and froze down in Bambanker freezing media (Thermo Fisher Scientific).
Alignment of ATAC-Seq and Peak Calling. All ATAC-Seq reads were trimmed using Trimmomatic to remove primer and low-quality bases. Reads <36 bp were dropped. Reads were then passed to FastQC [www.bioinformatics.babraham.ac.uk/projects/fastqc/] to check the quality of the trimmed reads. The paired-end reads were then aligned to the mm10 reference genome using bowtie2 [29], allowing maximum insert sizes of 2000 bp, with the “—no-mixed” and “—no-discordant” parameters added. Reads with a mapping quality (MAPA) below 30 were removed. Duplicates were removed with PicardTools, and the reads mapping to the blacklist regions and mitochondrial DNA were also removed. Reads mapping to the positive strand were moved +4 bp, and reads mapping to the negative strand were moved −5 bp following the procedure outlined in [30] to account for the binding of the Tn5 transposase.
(§1) Peaks were called using macs2 on the aligned fragments with a qvalue cutoff of 0.001 and overlapping peaks among replicates were merged.
Tests of Differential Accessibility in ChARs. Differential accessibility was assessed using DESeq2 [32] on with a matrix of peaks by samples replacing the genes by samples matrix. Counts of Tn5 cuts were used instead of gene expression values.
ATAC-seq. For population ATAC-seq, in vitro differentiated T-cells were sorted for live cells and stored in Bambanker freezing media (Thermo Fisher Scientific) at −80° C. until further processing. Prior to library preparation, cells were thawed at 37° C. and washed with PBS. For ATAC-seq, cell pellets were lysed and tagmented in 1×TD Buffer, 0.2 ul TDE1 (Illumina), 0.01% digitonin, and 0.3×PBS in 40 ul reaction volume following the protocol described in [49]. Transposition reactions were incubated at 37° C. for 30 min at 300 rpm. The DNA was purified from the reaction using a MinElute PCR purification kit (QIAGEN). The whole resulting product was then PCR-amplified using indexed primers with NEBNext High-Fidelity 2X PCR Master Mix (NEB). First, Applicants performed 5 cycles of pre-amplification. Applicants sampled 10% of the pre-amplification reaction for SYBR Green quantitative PCR to assess the number of additional cycles needed for final amplification. After purifying the final library with the MinElute PCR purification kit (QIAGEN), the library was quantified for sequencing using qPCR and a Qubit dsDNA HS Assay kit (Invitrogen). Libraries were sequenced on an Illumina NextSeq 550 system with paired-end reads of 37 base pairs in length.
Alignment of ATAC-Seq and Peak Calling. All ATAC-Seq reads were trimmed using Trimmomatic to remove primer and low-quality bases. Reads <36 bp were dropped. Reads were then passed to FastQC [www.bioinformatics.babraham.ac.uk/projects/fastqc/] to check the quality of the trimmed reads. The paired-end reads were then aligned to the mm10 reference genome using bowtie2 [51], allowing maximum insert sizes of 2000 bp, with the “—no-mixed” and “—no-discordant” parameters added. Reads with a mapping quality (MAPA) below 30 were removed. Duplicates were removed with PicardTools, and the reads mapping to the blacklist regions and mitochondrial DNA were also removed. Reads mapping to the positive strand were moved +4 bp, and reads mapping to the negative strand were moved −5 bp following the procedure outlined in [52] to account for the binding of the Tn5 transposase.
as §1
Tests of Differential Accessibility. Differential accessibility was assessed using DESeq2 [54] on with a matrix of peaks (merging all samples) by samples. […]

[3] = tested on: Th17 cells (Th17n, Th17p); assay: T cell differentiation culture and flow cytometry (intracellular cytokine and transcription factor staining, CellTrace proliferation)
Procedure: Naïve CD4+CD44-CD62L+CD25-T cells were sorted using BD FACSAria sorter and activated with plate-bound anti-CD3 (1 μg/ml) and antiCD28 antibodies (2 μg/ml) in the presence of cytokines at a concentration of 5×10^5 cells/ml.
Naïve CD4+CD44-CD62L+CD25− T cells with or without including IL-17A.GFP+ were sorted using BD FACSAria sorter and activated with plate-bound anti-CD3 and antiCD28 antibodies (each 1 μg/ml) in the presence of cytokines at a concentration of 5×10^5 cells/ml. For T cell differentiations the following combinations of cytokines were used: pathogenic Th17 (Th17p): 25 ng/ml rmIL-6, 20 ng/ml rmIL-1b (both Miltenyi Biotec) and 20 ng/ml rmIL-23 (R&D systems); non-pathogenic Th17 (Th17n): 25 ng/ml rmIL-6 and 2 ng/ml of rhTGFb1 (Miltenyi Biotec). For differentiation experiments, cells were harvested at 72 hours and were performed in the presence or absence of 50 μM EGCG (Selleck Chemicals), 50 μM DHEA, 40 μM DCA, 10 μM Shikonin (all Sigma) as indicated.
Proliferation was assessed by staining with CellTrace Violet (Thermo Fisher Scientific) per manufacturer's instructions. All stainings were analyzed on a FACS LSR II (BD Bioscience) and using FlowJo software.

[4] = supernatant from both Th17n and Th17p cultures
[5] = cMAF fl/fl CD4cre Th17 cells vs control

NCCC[C@](N)(C(=O)O)C(F)F [DFMO, 2-(difluoromethyl)ornithine]
DFMO-dependent upregulation of IL-10 ([1]; Th17n cells, loss of JMJD3, supernatant): reduced | IL-13 ([1]; pathogenic Th17 cells): decreased | IL-9 ([1]; protein, Th17n and Th17p cultures): promoted; also recorded: promoting | IL-17A [1, 4]: significantly inhibited | IL-17F [1, 4]: significantly inhibited | IFNg ([1]; supernatant, Th17n and Th17p): did not consistently influence | IL-5 ([1]; supernatant, Th17n and Th17p): did not consistently influence | IL-10 ([1]; supernatant, Th17n and Th17p): did not consistently influence | IL-13 ([1]; supernatant, Th17n and Th17p): did not consistently influence | TNFa ([1]; supernatant, Th17n and Th17p): did not consistently influence | ATACseq peaks in the Il23r region [2]: no significant difference | accessibility in Th17 specific regions [2]: specifically reduced accessibility; also recorded: reduces accessibility; also recorded: more restricted landscape; also recorded: less accessibility | accessibility in Treg specific regions [2]: more accessible landscape; also recorded: more accessibility | peaks near regulatory elements for Foxp3 such as CNS2 [2]: no differentially expressed peaks | peaks in the promoter and intergenic regions of Il17a-Il17f ([2]; Rorgt binding site): significantly restricted peaks | accessibility near potential binding sites of JMJD3 and POU-domain TFs ([2]; Th17n cells): increased accessibility | accessible peaks overall ([2]; Th cells analyzed): alters chromatin accessibility; also recorded: significant changes in accessible peaks; also recorded: considerable changes in accessible peaks | motif enrichment in iTreg-specific accessible regions ([2]; both Th17n and Th17p cells): significant enrichment of BATF and cMAF motifs | IL-17+ cells ([3]; DFMO at 4-5 days only (expansion phase)): no change | IL-17+ cells ([3]; DFMO at both days 1-3 and days 4-5): decrease | IL-17+ cells ([3]; DFMO at days 1-3 only (differentiation)): decrease | IL-17 positive CD4 T cells ([3]; FACS, Th17 condition not stated): decreased | cell proliferation ([3]; Th17 cultures): less cell proliferation; also recorded: reduced cell proliferation | frequency of Foxp3+ cells / Foxp3 expression ([3]; Th17n (non-pathogenic) condition): increase; also recorded: increased frequency | upregulation of Foxp3 by DFMO ([3]; Th17n cells, absence of JMJD3 (JMJD3fl/flCD4cre)): partially abrogated | Rorgt expression ([3]; Th17p cells): suppressed | Tbet expression ([3]; Th17p cells): suppressed | effect of DFMO on Foxp3 upregulation [3, 5]: partially rescued | effect of DFMO on expression of IL-17 [3, 5]: did not impact | frequency of IL-17+ cells ([3]; cells that have divided just once): significantly reduced | FoxP3 CD4 T cells ([3]; condition not stated): increase | IL-17 expression ([3]; intracellular staining, both Th17n and Th17p cells): suppresses IL-17 expression; also recorded: significantly inhibited | Rorgt expression ([3]; pathogenic and non-pathogenic Th17 cells): did not consistently alter; also recorded: does not alter

epigallocatechin-3-gallate [EGCG]
cytokine profile / cytokine production ([1]; glycolysis enzyme inhibitors, Th17 cell cultures): retained their cytokine profile | IFNg expression ([3]; Th17n cells): upregulation | IL-10 ([3]; Th17n cells): suppression | Tbet expression ([3]; Th17n cells): upregulation | IL-17 positive CD4 T cells / IL-17 expression ([3]; glycolysis enzyme inhibitors, non-pathogenic or pathogenic Th17 conditions, cells after one division): increase
